Assay results reported in PMC10206591, “Identification of small molecules capable of enhancing viral membrane fusion” (Virology Journal, 2023).
Several values for one entry are separate records, joined by “and”; a condition that tells them apart may be missing. Equal entries are not always repeated.

Tests used:
Hek 293T cells [1] = experiment: Cell viability, Cell-Titer Glo (ATP levels), Hek 293T; type: cell-based; conditions: 48 h, Fig. 6C
Method: (§1) The toxicity of the compounds was evaluated with Cell-Titer Glo (Promega) following the manufacturer’s indications. Briefly, cells were seeded (~ 1 × 10^4 cells/plate) in an opaque white 96-well plate and treated with the appropriate compound at the indicated concentration for 48 h. Next, 100 µl of CellTiter-Glo® reagent was added and let the luminescence signal stabilizes for 10 min. The luminescence was recorded on a VictorX multi-plate reader (Perking Elmer, Waltham, MA, USA).
(§2) Fig. 6 Toxicity of hit compounds. A, B The toxicity in Hek 293T and Vero E6 cells (A and B, respectively) was analyzed after incubating the compounds at the indicated concentration for 48 h. Toxicity was analyzed by measuring ATP levels using the Cell-Titer Glo assay (Promega) following the manufacturer’s indications. Dots represent the average of at least three independent experiments. C The CC10, CC50, and CC90 values were calculated with the data shown in panels A and B TEXT PRINTED IN THE PICTURE: (C) Latanoprost: Hek293T CC10 (μM): 16.2; Hek293T CC50 (μM): 63.9; Hek293T CC90 (μM): 270; Vero E6 CC10 (μM): 76.9; Vero E6 CC50 (μM): 124; Vero E6 CC90 (μM): 171 | (C) Diperodon: Hek293T CC10 (μM): 14.2; Hek293T CC50 (μM): 41; Hek293T CC90 (μM): 98.3; Vero E6 CC10 (μM): 24; Vero E6 CC50 (μM): 88; Vero E6 CC90 (μM): 153 | (C) Ethynylestradiol: Hek293T CC10 (μM): 11.8; Hek293T CC50 (μM): 49.9; Hek293T CC90 (μM): 169.9; Vero E6 CC10 (μM): 13.6; Vero E6 CC50 (μM): 96.6; Vero E6 CC90 (μM): 224 | (C) Simvastatin: Hek293T CC10 (μM): 8.0; Hek293T CC50 (μM): 34.2; Hek293T CC90 (μM): 125.8; Vero E6 CC10 (μM): 3.11; Vero E6 CC50 (μM): 6.02; Vero E6 CC90 (μM): 61.2 | (C) Rabeprazol: Hek293T CC10 (μM): 14.3; Hek293T CC50 (μM): 38.1; Hek293T CC90 (μM): 83.6; Vero E6 CC10 (μM): 51.6; Vero E6 CC50 (μM): 122.8; Vero E6 CC90 (μM): 194 | (C) Ethaverine: Hek293T CC10 (μM): 9.7; Hek293T CC50 (μM): 43.8; Hek293T CC90 (μM): 120.7; Vero E6 CC10 (μM): 45; Vero E6 CC50 (μM): 119.8; Vero E6 CC90 (μM): 194.7

[2] = as above; type: cell-based; conditions: human; for CC50 / CC90: 48 h
Method: as §1, §2

Vero E6 cells = experiment: Cell viability, Cell-Titer Glo (ATP levels), Vero E6; type: cell-based; conditions: 48 h, Fig. 6C
Method: as §1, §2

[3] = as above; type: cell-based; conditions: African green monkey, Fig. 6C; for CC50 / CC90: 48 h
Method: as §1, §2

[4] = system: SARS-CoV-2 S-mediated membrane fusion
[5] = system: SARS-CoV-2 S-mediated membrane fusion in the presence of TMPRSS2
IAV/WSN/33 = type: cell-based, Influenza A virus
[6] = system: Nipah virus membrane fusion; type: cell-based; conditions: Hek 293T, NiV F and G, 48 h
SARS-CoV-2 = type: cell-based
Hek 293T cells [7] = experiment: Cell viability, Cell-Titer Glo (ATP levels), Hek 293T; type: cell-based; conditions: Hek 293T transfected with TMPRSS2 or eYFP, Fig. S2
[8] = Table 1, Hek 293T, read-out: CC50
[9] = Fig. 6C, read-out: Hek293T CC50
[10] = Fig. 6C, read-out: Hek293T CC90

| Compound | Hek293T CC10 (Hek 293T cells [1]) [µM] | CC50 [2, 8] [µM] | CC50 [2, 9] [µM] | CC90 [2, 10] [µM] | Vero E6 CC10 (Vero E6 cells) [µM] | CC50 [3] [µM] | CC90 [3] [µM] | Activity index (Fusion % at CC50/CC50), NO TMPRSS2 [4] | Fusion % at CC50, NO TMPRSS2 [4] | Activity index (Fusion % at CC50/CC50), TMPRSS2 [5] | Fusion % at CC50, TMPRSS2 [5] | effect on IAV titers (in words) (IAV/WSN/33) | effect on NiV-induced membrane fusion (in words) [6] | effect on SARS-CoV-2 viral titers (in words) (SARS-CoV-2) | increase in viral-induced membrane fusion (in words) [4] | Z-score [4] | further results |
| --- | --- | --- | --- | --- | --- | --- | --- | --- | --- | --- | --- | --- | --- | --- | --- | --- | --- |
| O=C(Nc1ccccc1)OCC(CN1CCCCC1)OC(=O)Nc1ccccc1 (stereo not drawn) [Diperodon] | 14.2 | 41 | 41 | 98.3 | 24 | 88 | 153 | 3,03 | 123,98% | 3,39 | 138,77% | – | – | – | – | – | – |
| CCOc1ccc(Cc2nccc3cc(OCC)c(OCC)cc23)cc1OCC [Ethaverine] | 9.7 | 43.8 | 43.8 | 121 | 45 | 120 | 195 | 2,86 | 125,39% | 9,56 | 419,22% | did not increase viral titers | enhance viral-mediated membrane fusion in a mild dose-dependent manner | did not increase or accelerate the growth | – | – | – |
| C#C[C@]1(O)CC[C@H]2[C@@H]3CCc4cc(O)ccc4[C@H]3CC[C@@]21C [Ethynylestradiol] | 11.8 | 49.9 | 49.9 | 170 | 13.6 | 96.6 | 224 | 3,25 | 162,00% | 6,27 | 312,60% | increases IAV titers by approximately one log | enhance viral-mediated membrane fusion in a mild dose-dependent manner | increased viral titers | stronger inducers | – | toxicity in the presence of TMPRSS2 (in words) (Hek 293T cells [7]): compound toxicity was not affected by the presence of the cellular protease; SARS-CoV-2 titer, Average (SARS-CoV-2): 2.6x10^6 pfu/mL and 3.6x10^6 pfu/mL and 5.0x10^6 pfu/mL |
| CC(C)OC(=O)CCC/C=C\C[C@@H]1[C@@H](CC[C@@H](O)CCc2ccccc2)[C@H](O)C[C@@H]1O [Latanoprost] | 16.2 | 63.9 | 63.9 | 270 | 76.9 | 124 | 171 | 1,11 | 70,98% | 2,39 | 152,75% | – | – | – | stronger inducers | – | – |
| COCCCOc1ccnc(C[S+]([O-])c2nc3ccccc3[nH]2)c1C (stereo not drawn) [Rabeprazol] | 14.3 | 38.1 | 38.1 | 83.6 | 51.6 | 123 | 194 | 4,70 | 179,16% | 6,39 | 243,51% | did not increase viral titers | enhance viral-mediated membrane fusion in a mild dose-dependent manner | increased viral titers | – | – | SARS-CoV-2 titer, Average (SARS-CoV-2): 3.2x10^6 pfu/mL and 4.2x10^6 pfu/mL and 6.1x10^6 pfu/mL |
| CCC(C)(C)C(=O)O[C@H]1C[C@@H](C)C=C2C=C[C@H](C)[C@H](CC[C@@H]3C[C@@H](O)CC(=O)O3)[C@H]21 [Simvastatin] | 8.0 | – | – | – | 3.11 | – | – | 5,03 | 172,00% | 4,79 | 163,57% | – | – | – | stronger inducers | 1,72 | CC50 at 48 h [2, 9]: 34.2 µM; CC90 at 48 h [2, 10]: 126 µM; CC50 at 48 h [2, 8]: 34.2 µM; CC50 (Vero E6 cells): 6.02 µM; CC50 at 48 h [3]: ~6 µM; CC90 at 48 h [3]: 61.2 µM |
| CCCOc1ccccc1-c1nc2nn[nH]c2c(=O)[nH]1 [Zaprinast] | – | – | – | – | – | – | – | – | – | – | – | – | – | – | – | 1,64 | – |
| O=P(O)(O)C(O)(Cn1ccnc1)P(=O)(O)O [Zoledronic acid hydrate] | – | – | – | – | – | – | – | – | – | – | – | – | – | – | – | 2,27 | – |
| Meclocycline sulfosalicylate | – | – | – | – | – | – | – | – | – | – | – | – | – | – | – | 5,55 | – |
| Tyloxapol | – | – | – | – | – | – | – | – | – | – | – | – | – | – | – | 3,89 | – |
